Data from ChEMBL document CHEMBL1201862, “PubChem BioAssay data set” (2004).
Activity calls are given as the source filed them. Peptide text beside a SMILES is read from it. * marks the point of attachment. Boc = CC(C)(C)OC(=O)*

Key:
H4 = experiment: Luminescence Cell-Based Dose Response HTS to Identify Activators of 5'UTR Stem-Loop Driven Prion Protein mRNA Translation in H4 Neuroglioblastoma Cells. [Related pubchem assays: 1829 (Project Summary), 1814 (Primary HTS)]; type: functional; settings: Homo sapiens
[1] = luciferase reporter signal suppression in cells – H4 neuroglioma cells, luminescence, dose response (AID 1990); type: functional, cell-based
[2] = Luminescence Cell-Based Dose Response HTS to Identify Inhibitors of 5'UTR Stem-Loop Driven Prion Protein mRNA Translation in H4 Neuroglioblastoma Cells. [Related pubchem assays: 1827 (Project Summary), 1813 (Primary HTS)]; type: functional
[3] = alpha-synuclein stem-loop luciferase translation blockers – H4 neuroglioma cells, luminescence, confirmation (AID 1988); type: functional, cell-based
[4] = target: T1, Corticotropin-releasing factor receptor 2/Corticotropin-releasing factor-binding protein (Homo sapiens, UniProt P24387+Q13324); experiment: Dose Response confirmation of uHTS hits for small molecule antagonists of the CRF-binding protein and CRF-R2 receptor complex.; type: functional; settings: read-out: IC50_Mean
T1 sequence (Q13324 whole entry): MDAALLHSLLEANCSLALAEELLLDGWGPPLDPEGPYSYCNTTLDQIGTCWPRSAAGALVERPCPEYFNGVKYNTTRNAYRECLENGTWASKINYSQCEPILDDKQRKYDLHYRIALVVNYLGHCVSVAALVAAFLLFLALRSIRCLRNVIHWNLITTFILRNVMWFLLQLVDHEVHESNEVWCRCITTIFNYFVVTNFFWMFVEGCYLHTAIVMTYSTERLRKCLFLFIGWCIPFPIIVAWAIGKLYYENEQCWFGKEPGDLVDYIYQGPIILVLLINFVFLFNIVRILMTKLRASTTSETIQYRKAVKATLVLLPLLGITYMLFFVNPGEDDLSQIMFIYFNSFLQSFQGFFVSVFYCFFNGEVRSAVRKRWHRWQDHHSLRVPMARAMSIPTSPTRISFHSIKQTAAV
T1 sequence (P24387 whole entry): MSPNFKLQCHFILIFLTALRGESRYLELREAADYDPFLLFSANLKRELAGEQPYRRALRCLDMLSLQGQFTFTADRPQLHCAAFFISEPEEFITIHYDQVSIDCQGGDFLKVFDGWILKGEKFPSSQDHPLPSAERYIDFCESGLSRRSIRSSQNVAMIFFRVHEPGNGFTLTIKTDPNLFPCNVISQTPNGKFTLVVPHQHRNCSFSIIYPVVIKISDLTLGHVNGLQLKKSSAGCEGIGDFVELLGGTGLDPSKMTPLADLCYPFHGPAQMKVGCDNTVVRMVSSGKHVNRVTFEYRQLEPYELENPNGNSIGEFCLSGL

[5] = target: T1, Corticotropin-releasing factor receptor 2/Corticotropin-releasing factor-binding protein; experiment: activators of CRF receptor 2 with binding protein – uHTS hits, confirmation (AID 602473); type: functional; settings: read-out: EC50_Mean
Cytochrome P450 1A2 = target: T2, Cytochrome P450 1A2 (Homo sapiens, UniProt P05177);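 note: PubChem cytochrome P450 panel assay, CYP1A2 panel member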
T2 sequence (P05177 whole entry): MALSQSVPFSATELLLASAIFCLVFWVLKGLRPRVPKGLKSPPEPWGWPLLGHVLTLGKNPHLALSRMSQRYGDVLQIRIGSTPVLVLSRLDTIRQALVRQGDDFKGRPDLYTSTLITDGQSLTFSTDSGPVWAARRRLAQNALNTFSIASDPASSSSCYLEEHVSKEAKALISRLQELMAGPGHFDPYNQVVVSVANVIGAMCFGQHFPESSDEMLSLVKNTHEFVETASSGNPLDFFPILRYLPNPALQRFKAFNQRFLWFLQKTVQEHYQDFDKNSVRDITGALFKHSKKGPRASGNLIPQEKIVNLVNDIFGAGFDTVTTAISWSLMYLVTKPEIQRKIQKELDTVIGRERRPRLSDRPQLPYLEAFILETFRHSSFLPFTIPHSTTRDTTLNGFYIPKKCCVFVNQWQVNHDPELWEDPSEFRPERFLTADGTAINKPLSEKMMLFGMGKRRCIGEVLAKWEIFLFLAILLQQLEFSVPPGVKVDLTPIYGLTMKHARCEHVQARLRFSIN

Streptococcus = experiment: GAS UMAA2166 growth inhibition – luminescence, BacTiterGlo, counter-screen for streptokinase expression inhibitor project, dose response (AID 1915); type: functional, organism-based;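 note: potency for reduction of bacterial viability or growth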
[6] = system: Streptococcus sp. 'group A'; experiment: Streptococcus pyogenes SK(-)GAS viability under kanamycin – luminescence, BacTiterGlo, confirmation, counter-screen for streptokinase expression inhibitor project, dose response (AID 1900); type: functional, organism-based
Streptokinase A = target: T3, Streptokinase A (Streptococcus pyogenes serotype M1, UniProt P10520); experiment: viability-normalized secreted streptokinase activity reduction – plasminogen activation absorbance, OD405, dose response (AID 1914); type: functional, Streptococcus pyogenes M1 GAS;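 note: secreted streptokinase activity via plasminogen activation per viability signal from cell pellet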
T3 sequence (P10520 whole entry): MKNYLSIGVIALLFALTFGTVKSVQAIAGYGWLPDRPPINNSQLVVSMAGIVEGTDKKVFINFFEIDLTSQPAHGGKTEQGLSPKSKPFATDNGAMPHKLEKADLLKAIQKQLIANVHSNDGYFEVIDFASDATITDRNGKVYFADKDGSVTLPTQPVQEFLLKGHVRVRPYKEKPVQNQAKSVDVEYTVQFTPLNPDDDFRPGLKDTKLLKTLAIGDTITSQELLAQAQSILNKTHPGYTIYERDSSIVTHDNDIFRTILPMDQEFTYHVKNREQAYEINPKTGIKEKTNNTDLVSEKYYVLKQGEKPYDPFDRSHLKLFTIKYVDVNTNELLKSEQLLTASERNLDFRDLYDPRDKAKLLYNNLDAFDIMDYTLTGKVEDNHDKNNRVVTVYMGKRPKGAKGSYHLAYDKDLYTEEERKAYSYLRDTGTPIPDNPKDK

Cytochrome P450 2C19 = Cytochrome P450 2C19 (Homo sapiens, UniProt P33261); experiment: Cytochrome panel assay with activity outcomes. Panel member name: p450-cyp2c19 Compounds with AC50 equal or less than 10 uM are considered active; type: functional; settings: read-out: AC50
Cytochrome P450 2C19, sequence (P33261 whole entry): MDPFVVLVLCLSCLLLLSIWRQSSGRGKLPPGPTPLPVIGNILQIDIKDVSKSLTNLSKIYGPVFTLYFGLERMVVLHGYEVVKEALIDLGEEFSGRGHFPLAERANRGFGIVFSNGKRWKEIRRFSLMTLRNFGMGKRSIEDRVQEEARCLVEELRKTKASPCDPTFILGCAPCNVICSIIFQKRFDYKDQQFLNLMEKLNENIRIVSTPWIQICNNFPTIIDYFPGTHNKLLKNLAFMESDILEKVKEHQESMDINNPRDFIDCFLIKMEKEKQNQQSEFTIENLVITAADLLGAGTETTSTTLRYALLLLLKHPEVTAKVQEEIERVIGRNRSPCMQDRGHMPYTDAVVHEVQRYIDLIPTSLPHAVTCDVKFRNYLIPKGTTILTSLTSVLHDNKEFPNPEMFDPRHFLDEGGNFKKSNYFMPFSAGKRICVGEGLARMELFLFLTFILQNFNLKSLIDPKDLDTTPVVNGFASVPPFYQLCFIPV

Cytochrome P450 2C9 = Cytochrome P450 2C9 (Homo sapiens, UniProt P11712)
Cytochrome P450 2C9, sequence (P11712 whole entry): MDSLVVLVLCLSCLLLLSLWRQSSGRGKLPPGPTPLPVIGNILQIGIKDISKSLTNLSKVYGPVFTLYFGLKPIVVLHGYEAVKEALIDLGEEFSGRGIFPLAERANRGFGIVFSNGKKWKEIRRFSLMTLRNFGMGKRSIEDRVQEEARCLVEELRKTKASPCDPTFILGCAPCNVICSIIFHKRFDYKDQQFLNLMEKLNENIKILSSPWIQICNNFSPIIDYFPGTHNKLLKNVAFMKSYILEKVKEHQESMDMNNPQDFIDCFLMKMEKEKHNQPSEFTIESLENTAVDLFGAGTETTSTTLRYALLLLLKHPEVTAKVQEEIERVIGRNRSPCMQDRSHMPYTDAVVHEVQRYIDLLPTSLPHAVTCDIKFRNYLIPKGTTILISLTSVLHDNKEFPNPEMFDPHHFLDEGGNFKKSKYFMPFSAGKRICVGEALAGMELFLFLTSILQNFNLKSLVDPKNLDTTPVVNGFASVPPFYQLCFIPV

Cytochrome P450 3A4 = Cytochrome P450 3A4 (Homo sapiens, UniProt P08684);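 note: CYP3A4 tested as one member of a cytochrome P450 panel screen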
Cytochrome P450 3A4, sequence (P08684 whole entry): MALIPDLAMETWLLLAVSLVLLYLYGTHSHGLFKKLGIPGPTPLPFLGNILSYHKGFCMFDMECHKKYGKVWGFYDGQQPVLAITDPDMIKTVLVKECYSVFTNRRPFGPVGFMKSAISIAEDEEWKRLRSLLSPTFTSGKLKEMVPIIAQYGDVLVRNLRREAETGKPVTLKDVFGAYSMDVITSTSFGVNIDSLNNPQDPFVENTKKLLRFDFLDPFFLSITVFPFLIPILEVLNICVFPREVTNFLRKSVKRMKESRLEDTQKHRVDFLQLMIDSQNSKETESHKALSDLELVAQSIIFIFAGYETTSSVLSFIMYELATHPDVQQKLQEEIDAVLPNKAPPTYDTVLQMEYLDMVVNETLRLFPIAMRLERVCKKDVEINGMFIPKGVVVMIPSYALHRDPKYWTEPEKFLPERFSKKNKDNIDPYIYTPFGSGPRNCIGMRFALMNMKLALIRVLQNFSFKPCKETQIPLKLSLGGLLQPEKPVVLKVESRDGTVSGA

[7] = Trypanosoma cruzi growth suppression in host cells – NIH3T3 host cells, beta-gal luminescence, confirmation (AID 2044); type: functional, cell-based;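 note: intracellular parasites grown in NIH/3T3 mouse fibroblasts as host cells; luminescent beta-galactosidase reporter signal from transgenic T. cruzi replicating inside host cells; inhibitors lower the luminescence signal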
[8] = NIH3T3 cell viability loss – ATP luminescence, mouse fibroblasts, counter-screen, dose response (AID 2010); type: functional, cell-based;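 note: cells exposed to compound for about 90 hours before reading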

| Compound | IC50 [4] | EC50 [5] | AC50 (Cytochrome P450 1A2) | also measured |
| --- | --- | --- | --- | --- |
| COc1cc2ccccc2cc1C(=O)Nc1ccc(N2CCN(C)CC2)cc1 | – | – | – | EC50 (H4): > 120 µM (not active) |
| CCCOc1ccc(N2C(=O)CC(N3CCC(c4nc5ccccc5o4)CC3)C2=O)cc1 (stereo not drawn) | – | – | – | EC50 [1]: > 120 µM (not active); EC50 [2]: > 60 µM (not active); EC50 [3]: > 120 µM (not active) |
| COc1ccc(N(CC(=O)NCCc2ccc(OC)c(OC)c2)S(=O)(=O)c2c(C)noc2C)cc1 | > 47.1 µM (inactive) | > 53 µM (inactive) | – | – |
| O=C1NC(=O)C(CCc2ccncc2)(Cc2cccc(Cl)c2Cl)C(=O)N1c1ccc(Br)cc1 (stereo not drawn) | – | – | – | EC50 [1]: 13.2 µM (active); EC50 [2]: 18.9 µM (active); EC50 [3]: 13.9 µM (active) |
| Oc1cc(O)c2c(c1)O[C@H](c1ccc(O)c(O)c1)[C@@H](O)[C@@H]2c1c(O)cc(O)c2c1O[C@@H](c1ccc(O)c(O)c1)[C@H](O)C2 | – | – | 2.51 µM (inconclusive) | – |
| CCn1c(COc2ccc(C)cc2)nnc1SCc1ccc(C#N)cc1 | – | – | 28.2 µM (inconclusive) | EC50 (Streptococcus): > 150 µM (not active); EC50 [6]: > 150 µM (not active); EC50 (Streptokinase A): > 150 µM (not active) |
| N[C@H](C(=O)O)[C@@H]1[C@@H](C(=O)O)C1(F)F | – | – | 31.6 µM (inconclusive) | – |
| CC(C)C(NC(=O)OC(C)(C)C)C(=O)N1CCCC1C(=O)NC(Cc1ccccc1)C(N)=O (stereo not drawn) (Boc-Val-Pro-Phe-NH2; configuration not given here) | – | – | 2 µM (inconclusive) | AC50 (Cytochrome P450 2C19): 1.12 µM (inconclusive); AC50 (Cytochrome P450 2C9): 31.6 µM (inconclusive); AC50 (Cytochrome P450 3A4): 15.8 µM (inconclusive) |
| c1ccc(-c2csc(Nc3nc(N4CCOCC4)nc(N4CCOCC4)n3)n2)cc1 | – | – | 5.62 µM (inconclusive) | AC50 (Cytochrome P450 2C19): 5.62 µM (inconclusive); AC50 (Cytochrome P450 2C9): 3.16 µM (inconclusive); EC50 [7]: 0.104 µM (active); AC50 (Cytochrome P450 3A4): 10 µM (inconclusive); EC50 [8]: > 30 µM (not active) |
| COc1ccc(CNC(=O)CN(C)S(=O)(=O)c2ccc3c(c2)n(C)c(=O)c(=O)n3C)cc1 | > 47.1 µM (inactive) | > 53 µM (inactive) | – | – |
| Clc1ccc(CSc2ncnc3c2ncn3[C@@H]2CCCCO2)cc1 | – | – | 1.58 µM (inconclusive) | – |
| O=S(=O)(N=C(Nc1ccccn1)c1ccccc1)c1ccccc1 | – | – | 14.1 µM (inconclusive) | AC50 (Cytochrome P450 2C19): 15.8 µM (inconclusive); AC50 (Cytochrome P450 3A4): 28.2 µM (inconclusive) |
| O=C(O)CCNC(=O)OCC1c2ccccc2-c2ccccc21 | > 47.1 µM (inactive) | > 53 µM (inactive) | – | – |
| CCc1c(C)sc(NC(=O)CSc2nc3c(c(C(F)(F)F)n2)CCc2ccccc2-3)c1C#N | – | – | – | EC50 [1]: > 120 µM (not active); EC50 [2]: > 120 µM (not active); EC50 [3]: 18.8 µM (active) |
| CCc1cc(C(=O)OC)c(NC(=O)CCCC(=O)O)s1 | – | – | 25.1 µM (inconclusive) | AC50 (Cytochrome P450 2C9): 28.2 µM (inconclusive) |
| COc1ccc(CNC(=O)Nc2cccs2)cc1OC | > 47.1 µM (inactive) | > 53 µM (inactive) | – | AC50 (Cytochrome P450 2C9): 39.8 µM (inconclusive) |

| Compound | IC50 [4] | EC50 [5] | AC50 (Cytochrome P450 1A2) | also measured |
| --- | --- | --- | --- | --- |
| CC(C)(C)OC(=O)N1CCN(c2ccc(CNC(=O)c3ccc(Cl)cc3)cc2)CC1 | > 47.1 µM (inactive) | > 53 µM (inactive) | – | – |
| N#CC1=C(N)OC2=C(C(=O)CCC2)C12CCC1(CC2)OCCO1 | – | – | 25.1 µM (inconclusive) | – |
| Cc1ccc(OCCC(=O)O)cc1 | > 47.1 µM (inactive) | > 53 µM (inactive) | – | – |
| CCCCCN(C(=O)CCC(=O)OCC(=O)c1c(C)cc(C)cc1C)c1c(N)n(CCCC)c(=O)[nH]c1=O | > 47.1 µM (inactive) | > 53 µM (inactive) | – | – |
| NC(=O)Nc1n[nH]c(-c2ccccc2)n1 | – | – | 3.16 µM (inconclusive) | – |
| O=C(NNC(=O)c1oc2ccccc2c1-n1cccc1)c1ccco1 | > 47.1 µM (inactive) | > 53 µM (inactive) | – | – |
| c1cncc(-c2cncnc2NC2CCNCC2)c1 | – | – | 12.6 µM (inconclusive) | – |
| O=C1c2ccccc2-c2ccc(NC(=O)[C@H]3CCCC[C@@H]3C(=O)O)cc21 | – | – | 1 µM (inconclusive) | – |
| Cc1cccc(N(C(=O)c2sc(C)nc2C)C(C(=O)NCC2CCCO2)c2ccccc2)c1 (stereo not drawn) | > 47.1 µM (inactive) | > 53 µM (inactive) | – | – |
| CCN(CC)c1ccc(NC(=O)CN2CCN(c3ccccc3F)CC2)cc1 | – | – | 28.2 µM (inconclusive) | AC50 (Cytochrome P450 3A4): 15.8 µM (inconclusive) |
| O=C(c1ccc(F)cc1)C1CCN(Cc2ccccc2F)CC1 | > 47.1 µM (inactive) | > 53 µM (inactive) | – | – |
| CCOc1ccc(OCCOCCN2CCc3ccccc3C2)cc1 | – | – | 20 µM (inconclusive) | AC50 (Cytochrome P450 2C9): 11.2 µM (inconclusive); EC50 [7]: 0.124 µM (active); AC50 (Cytochrome P450 3A4): 25.1 µM (inconclusive); EC50 [8]: 21 µM (active) |
| CN(Cc1cc2ccccc2[nH]c1=O)S(C)(=O)=O | – | – | 28.2 µM (inconclusive) | – |
| CC(=O)c1c(N2CCCCC2)nc(=S)n(Cc2ccccc2)c1C | > 47.1 µM (inactive) | > 53 µM (inactive) | – | – |
| O=C(COC(=O)c1cc2ccccc2cc1O)NC1CCCCC1 | > 47.1 µM (inactive) | > 53 µM (inactive) | – | – |
| Nc1cc(N)nc(SCC(=O)NNC(=O)c2ccc(Cl)cc2)n1 | – | – | 15.8 µM (inconclusive) | AC50 (Cytochrome P450 2C19): 39.8 µM (inconclusive); AC50 (Cytochrome P450 2C9): 28.2 µM (inconclusive); AC50 (Cytochrome P450 3A4): 14.1 µM (inconclusive) |
